Species on record: Rattus norvegicus
Assay: Open TG-GATES - Regimen: Single
Format: toxicity, organism-based, Sprague-Dawley
Set-up: regimen Single, gender Male, age 6 weeks
Conditions: in vivo, ip, 0 mg/kg, route intraperitoneal injection, dose level Control; for APTT / Bas / Eos / Fbg / Hb / Ht / Lym / MCH / MCHC / MCV / Mono / Neu / PT / Plat / RBC / Ret / WBC: tissue Blood; for KIDNEY_L / KIDNEY_R / KIDNEY_TOTAL: tissue Kidney; for LIVER: tissue Liver; for A/G / ALP / ALT / AST / BUN / CRE / Ca / Cl / DBIL / GLC / IP / K / LDH / Na / PL / RALB / TBIL / TC / TG / TP / gamma-GTP: tissue Plasma

## CCCCS(=N)(=O)CCC(N)C(=O)O (configuration not stated) [BUTHIONINE SULFOXIMINE]
3 h
  TERMINAL_BW: 217.4 g
  APTT: 16.3 s
  Bas: 0%
  Eos: 0.6%
  Fbg: 214.6 mg/dL
  Hb: 13.1 g/dL
  Ht: 39.2%
  Lym: 66.4%
  MCH: 21.9 pg
  MCHC: 33.4%
  MCV: 65.6 fL
  Mono: 10%
  Neu: 23.4%
  PT: 11.9 s
  Plat: 108.9 x10_4/uL
  RBC: 598.2 x10_4/ul
  Ret: 8.3%
  WBC: 104.5 x10_2/uL
  KIDNEY_L: 1 g
  KIDNEY_R: 1 g
  KIDNEY_TOTAL: 2 g
  LIVER: 10.4 g
  A/G: 2.3
  ALP: 962.6 IU/L
  ALT: 44 IU/L
  AST: 81 IU/L
  BUN: 12.8 mg/dL
  CRE: 0.5 mg/dL
  Ca: 10.9 mg/dL
  Cl: 104.4 meq/L
  DBIL: 0.086 mg/dL
  GLC: 190 mg/dL
  IP: 10.5 mg/dL
  K: 4.6 meq/L
  LDH: 100.4 IU/L
  Na: 140.6 meq/L
  PL: 139.6 mg/dL
  RALB: 3.7 g/dL
  TBIL: 0.4 mg/dL
  TC: 76 mg/dL
  TG: 63.8 mg/dL
  TP: 5.4 g/dL
  gamma-GTP: 1.2 IU/L
6 h
  TERMINAL_BW: 211.9 g
  APTT: 16.7 s
  Bas: 0%
  Eos: 0.8%
  Fbg: 221 mg/dL
  Hb: 13.3 g/dL
  Ht: 39.9%
  Lym: 68.2%
  MCH: 21.9 pg
  MCHC: 33.3%
  MCV: 65.9 fL
  Mono: 5%
  Neu: 26%
  PT: 10.8 s
  Plat: 112.3 x10_4/uL
  RBC: 605.2 x10_4/ul
  Ret: 9.1%
  WBC: 106.4 x10_2/uL
  KIDNEY_L: 1 g
  KIDNEY_R: 1 g
  KIDNEY_TOTAL: 1.9 g
  LIVER: 9.5 g
  A/G: 2
  ALP: 754.6 IU/L
  ALT: 38.2 IU/L
  AST: 68 IU/L
  BUN: 11.4 mg/dL
  CRE: 0.7 mg/dL
  Ca: 10.9 mg/dL
  Cl: 105.6 meq/L
  DBIL: 0.014 mg/dL
  GLC: 197.6 mg/dL
  IP: 9.8 mg/dL
  K: 4.9 meq/L
  LDH: 58.2 IU/L
  Na: 140.2 meq/L
  PL: 139.4 mg/dL
  RALB: 3.5 g/dL
  TBIL: 0.4 mg/dL
  TC: 78.2 mg/dL
  TG: 62.8 mg/dL
  TP: 5.3 g/dL
  gamma-GTP: 1.6 IU/L
9 h
  TERMINAL_BW: 214.6 g
  APTT: 17.1 s
  Bas: 0%
  Eos: 1%
  Fbg: 231 mg/dL
  Hb: 13.4 g/dL
  Ht: 40.5%
  Lym: 74.8%
  MCH: 21.5 pg
  MCHC: 33%
  MCV: 65.1 fL
  Mono: 5.6%
  Neu: 19%
  PT: 11 s
  Plat: 114 x10_4/uL
  RBC: 622.2 x10_4/ul
  Ret: 9.5%
  WBC: 101.1 x10_2/uL
  KIDNEY_L: 1 g
  KIDNEY_R: 1 g
  KIDNEY_TOTAL: 1.9 g
  LIVER: 8.9 g
  A/G: 2.1
  ALP: 838 IU/L
  ALT: 34.4 IU/L
  AST: 65.8 IU/L
  BUN: 12.8 mg/dL
  CRE: 0.5 mg/dL
  Ca: 11 mg/dL
  Cl: 106 meq/L
  DBIL: 0.006 mg/dL
  GLC: 203.4 mg/dL
  IP: 10.3 mg/dL
  K: 4.9 meq/L
  LDH: 60.8 IU/L
  Na: 139.2 meq/L
  PL: 146.6 mg/dL
  RALB: 3.8 g/dL
  TBIL: 0.3 mg/dL
  TC: 85 mg/dL
  TG: 57 mg/dL
  TP: 5.6 g/dL
  gamma-GTP: 1.2 IU/L
24 h
  TERMINAL_BW: 226.3 g
  APTT: 17.2 s
  Bas: 0%
  Eos: 1%
  Fbg: 231.6 mg/dL
  Hb: 13.6 g/dL
  Ht: 41%
  Lym: 75.4%
  MCH: 21.3 pg
  MCHC: 33.1%
  MCV: 64.5 fL
  Mono: 8.4%
  Neu: 15.2%
  PT: 11.4 s
  Plat: 115.5 x10_4/uL
  RBC: 636.4 x10_4/ul
  Ret: 8.8%
  WBC: 88.5 x10_2/uL
  KIDNEY_L: 1 g
  KIDNEY_R: 1 g
  KIDNEY_TOTAL: 2 g
  LIVER: 11 g
  A/G: 1.8
  ALP: 826.4 IU/L
  ALT: 37.8 IU/L
  AST: 63.2 IU/L
  BUN: 17.8 mg/dL
  CRE: 0.5 mg/dL
  Ca: 11.2 mg/dL
  Cl: 103.6 meq/L
  DBIL: 0.008 mg/dL
  GLC: 210.6 mg/dL
  IP: 9 mg/dL
  K: 4.8 meq/L
  LDH: 89.2 IU/L
  Na: 139.6 meq/L
  PL: 163.4 mg/dL
  RALB: 3.7 g/dL
  TBIL: 0.3 mg/dL
  TC: 83.2 mg/dL
  TG: 109.2 mg/dL
  TP: 5.8 g/dL
  gamma-GTP: 1.6 IU/L
